Experimental data as given in paper PMC8900464 (Journal of medicinal chemistry, 2022).

Assays:
[1] = tested on: T-AKT; assay: T-AKT degradation in PC3 cells; assay type: cell-based, human
[2] = tested on: PC3 cells; assay: Cell proliferation assay; assay type: cell-based, human; conditions: 5 days
[3] = tested on: MDA-MB-468 cells; assay: Cell proliferation assay; assay type: cell-based; conditions: 5 days
[4] = tested on: total AKT (T-AKT); assay: Immunoblotting of total AKT in BT474 cells; assay type: cell-based; conditions: 24 h, western blot; for AKT (T-AKT) degradation: BT474 cells, 1, 5 and 10 μM; for AKT degradation: 5 μM
[5] = tested on: BT474 cells; assay: Cell colony formation assay; assay type: cell-based; conditions: 14 days
[6] = Mouse pharmacokinetic study; assay type: in vivo, mice; conditions: male, Swiss Albino, plasma, ip, 150 mg/kg
[7] = tested on: P-AKT (S473), P-PRAS40 (T246), P-S6 (S240/244); assay: Immunoblotting of P-AKT and downstream signaling in BT474 cells; assay type: cell-based; conditions: 24 h
[8] = tested on: P-PRAS40, P-S6; assay: Downstream signaling in PC3 cells; conditions: 1 μM for 24 h, then washout, 24 h post-treatment
[9] = BT474 cells, 1, 5 and 10 μM, P-PRAS40 and P-S6, western blot
[10] = BT474 cells, 5 μM, western blot

Compound: CN1C(=O)CCC(N2C(=O)c3cccc(NCCOCCOCCOCCOCCOCCC(=O)N4CCN(CC[C@H](NC(=O)C5(N)CCN(c6ncnc7[nH]ccc67)CC5)c5ccc(Cl)cc5)CC4)c3C2=O)C1=O (stereo partly drawn) [Compound 43, 4-Amino-N-((1S)-1-(4-chlorophenyl)-3-(4-(1-((2-(1-methyl-2,6-dioxopiperidin-3-yl)-1,3-dioxoisoindolin-4-yl)amino)-3,6,9,12,15-pentaoxaoctadecan-18-oyl)piperazin-1-yl)propyl)-1-(7H-pyrrolo-[2,3-d]pyrimidin-4-yl)piperidine-4-carboxamide]
- T-AKT protein level ([1]; concentrations up to 10 μM, 24 h): did not reduce the T-AKT protein level
- GI50 [2]: inactive
- GI50 [3]: inactive

Compound: NC1(C(=O)N[C@@H](CCN2CCN(C(=O)CCOCCOCCOCCOCCOCCCc3cccc4c3C(=O)N(C3CCC(=O)NC3=O)C4=O)CC2)c2ccc(Cl)cc2)CCN(c2ncnc3[nH]ccc23)CC1 (stereo partly shown) [Compound 41]
- AKT (T-AKT) degradation [4]: did not improve
- inhibition of colony formation [5]: did not improve

Compound: NC1(C(=O)N[C@@H](CCN2CCN(C(=O)CCOCCOCCOCCOCCOCCNc3cccc4c3C(=O)N(C3CCC(=O)NC3=O)C4=O)CC2)c2ccc(Cl)cc2)CCN(c2ncnc3[nH]ccc23)CC1 (stereo partly drawn) [Compound 35, 4-Amino-N-((1S)-1-(4-chlorophenyl)-3-(4-(1-((2-(2,6-dioxopiperidin-3-yl)-1,3-dioxoisoindolin-4-yl)amino)-3,6,9,12,15-pentaoxaoctadecan-18-oyl)piperazin-1-yl)propyl)-1-(7H-pyrrolo[2,3-d]-pyrimidin-4-yl)piperidine-4-carboxamide]
- AUC [6]: 32500 ng·h/mL
- Cmax [6]: 8 µM
- Tmax [6]: 1 h
- inhibition of phosphorylation of ribosomal protein S6 ([7]; BT474 cells, 1, 5 and 10 μM, among 32–38): most effective in inhibiting the phosphorylation of ribosomal protein S6
- AKT protein level after washout ([1]; 1 μM for 24 h, then washout, 24 h post-treatment): rebounded substantially
- T-AKT level after washout ([1]; 1 μM for 24 h, then washout, 48 h post-treatment): completely recovered
- downstream signaling inhibition after washout [8]: near fully recovered

Compound: Cc1ncsc1-c1ccc([C@H](C)NC(=O)[C@@H]2C[C@@H](O)CN2C(=O)[C@@H](NC(=O)CCCCCCCCCC(=O)N2CCN(CC[C@H](NC(=O)C3(N)CCN(c4ncnc5[nH]ccc45)CC3)c3ccc(Cl)cc3)CC2)C(C)(C)C)cc1 [Compound 23, 4-Amino-N-((S)-1-(4-chlorophenyl)-3-(4-(11-(((S)-1-((2S,4R)-4-hydroxy-2-(((S)-1-(4-(4-methylthiazol-5-yl)phenyl)ethyl)carbamoyl)-pyrrolidin-1-yl)-3,3-dimethyl-1-oxobutan-2-yl)amino)-11-oxoundecanoyl)piperazin-1-yl)propyl)-1-(7H-pyrrolo[2,3-d]-pyrimidin-4-yl)piperidine-4-carboxamide]
- downstream signaling inhibition [7, 9]: did not show significant difference from 19
- AKT (T-AKT) degradation [4]: did not show significant difference from 19
- inhibition of colony formation [5]: did not show significant difference from 19

Compound: Cc1ncsc1-c1ccc(CNC(=O)[C@@H]2C[C@@H](O)CN2C(=O)[C@@H](NC(=O)CCCCCC(=O)N2CCN(CC[C@H](NC(=O)C3(N)CCN(c4ncnc5[nH]ccc45)CC3)c3ccc(Cl)cc3)CC2)C(C)(C)C)cc1 [Compound 15, 4-Amino-N-((S)-1-(4-chlorophenyl)-3-(4-(7-(((S)-1-((2S,4R)-4-hydroxy-2-((4-(4-methylthiazol-5-yl)benzyl)carbamoyl)pyrrolidin-1-yl)-3,3-dimethyl-1-oxobutan-2-yl)amino)-7-oxoheptanoyl)-piperazin-1-yl)propyl)-1-(7H-pyrrolo[2,3-d]pyrimidin-4-yl)-piperidine-4-carboxamide]
- downstream signaling inhibition [7, 10]: significant downstream signaling inhibition
- AKT degradation ([4]; BT474 cells): improved AKT degradation

Compound: Cc1ncsc1-c1ccc(CNC(=O)[C@@H]2C[C@@H](O)CN2C(=O)[C@@H](N)C(C)(C)C)cc1 [VHL-1, (2S,4R)-1-[(S)-2-amino-3,3-dimethylbutanoyl]-4-hydroxy-N-[4-(4-methylthiazol-5-yl)benzyl]pyrrolidine-2-carboxamide, reference compound]
- downstream signaling (PRAS40 and S6 phosphorylation) ([7]; BT474 cells, 1 μM, western blot): no effect
- T-AKT protein level ([4]; BT474 cells, 1 μM): no effect

Compound: NC1(C(=O)N[C@@H](CCN2CCN(C(=O)CCCNc3cccc4c3C(=O)N(C3CCC(=O)NC3=O)C4=O)CC2)c2ccc(Cl)cc2)CCN(c2ncnc3[nH]ccc23)CC1 (stereo partly drawn) [Compound 26, 4-Amino-N-((1S)-1-(4-chlorophenyl)-3-(4-(4-((2-(2,6-dioxopiperidin-3-yl)-1,3-dioxoisoindolin-4-yl)amino)butanoyl)piperazin-1-yl)-propyl)-1-(7H-pyrrolo[2,3-d]pyrimidin-4-yl)piperidine-4-carboxamide]
- downstream signaling inhibition [7, 9]: moderate effectiveness
- AKT (T-AKT) degradation [4]: moderate effectiveness

Compound: Cc1ncsc1-c1ccc(CNC(=O)[C@@H]2C[C@@H](O)CN2C(=O)[C@@H](NC(=O)CCCCCCCCCC(=O)N2CCN(CC[C@H](NC(=O)C3(N)CCN(c4ncnc5[nH]ccc45)CC3)c3ccc(Cl)cc3)CC2)C(C)(C)C)cc1 [Compound 19, 4-Amino-N-((S)-1-(4-chlorophenyl)-3-(4-(11-(((S)-1-((2S,4R)-4-hydroxy-2-((4-(4-methylthiazol-5-yl)benzyl)carbamoyl)pyrrolidin-1-yl)-3,3-dimethyl-1-oxobutan-2-yl)amino)-11-oxoundecanoyl)-piperazin-1-yl)propyl)-1-(7H-pyrrolo[2,3-d]pyrimidin-4-yl)-piperidine-4-carboxamide]
- downstream signaling inhibition [7, 9]: most profound AKT degradation and downstream signaling inhibition
- AKT (T-AKT) degradation [4]: most profound AKT degradation

Compound: NC1(C(=O)N[C@@H](CCN2CCN(C(=O)CCOCCOCCOCCOCCOCCOc3cccc4c3C(=O)N(C3CCC(=O)NC3=O)C4=O)CC2)c2ccc(Cl)cc2)CCN(c2ncnc3[nH]ccc23)CC1 (stereo partly drawn) [Compound 40, 4-Amino-N-((1S)-1-(4-chlorophenyl)-3-(4-(1-((2-(2,6-dioxopiperidin-3-yl)-1,3-dioxoisoindolin-4-yl)oxy)-3,6,9,12,15-pentaoxaoctadecan-18-oyl)piperazin-1-yl)propyl)-1-(7H-pyrrolo[2,3-d]pyrimidin-4-yl)piperidine-4-carboxamide]
- AKT (T-AKT) degradation [4]: did not improve
- inhibition of colony formation [5]: did not improve

Compound: Cc1ncsc1-c1ccc(CNC(=O)[C@@H]2C[C@@H](O)CN2C(=O)[C@@H](NC(=O)CCCCC(=O)N2CCN(CC[C@H](NC(=O)C3(N)CCN(c4ncnc5[nH]ccc45)CC3)c3ccc(Cl)cc3)CC2)C(C)(C)C)cc1 [Compound 14, 4-Amino-N-((S)-1-(4-chlorophenyl)-3-(4-(6-(((S)-1-((2S,4R)-4-hydroxy-2-((4-(4-methylthiazol-5-yl)benzyl)carbamoyl)pyrrolidin-1-yl)-3,3-dimethyl-1-oxobutan-2-yl)amino)-6-oxohexanoyl)-piperazin-1-yl)propyl)-1-(7H-pyrrolo[2,3-d]pyrimidin-4-yl)-piperidine-4-carboxamide]
- downstream signaling inhibition [7, 10]: significant downstream signaling inhibition
- AKT degradation ([4]; BT474 cells): improved AKT degradation

Compound: Cc1ncsc1-c1ccc(CNC(=O)[C@@H]2C[C@@H](O)CN2C(=O)[C@@H](NC(=O)CCCCCCCCCCCC(=O)N2CCN(CC[C@H](NC(=O)C3(N)CCN(c4ncnc5[nH]ccc45)CC3)c3ccc(Cl)cc3)CC2)C(C)(C)C)cc1 [Compound 21, 4-Amino-N-((S)-1-(4-chlorophenyl)-3-(4-(13-(((S)-1-((2S,4R)-4-hydroxy-2-((4-(4-methylthiazol-5-yl)benzyl)carbamoyl)pyrrolidin-1-yl)-3,3-dimethyl-1-oxobutan-2-yl)amino)-13-oxotridecanoyl)-piperazin-1-yl)propyl)-1-(7H-pyrrolo[2,3-d]pyrimidin-4-yl)-piperidine-4-carboxamide]
- downstream signaling inhibition [7, 9]: slightly enhanced downstream signaling inhibition compared to 19
- inhibition of colony formation [5]: highly effective in inhibiting colony formation

Compound: NC1(C(=O)N[C@@H](CCN2CCN(C(=O)CCCCNc3cccc4c3C(=O)N(C3CCC(=O)NC3=O)C4=O)CC2)c2ccc(Cl)cc2)CCN(c2ncnc3[nH]ccc23)CC1 (stereo partly drawn) [Compound 27, 4-Amino-N-((1S)-1-(4-chlorophenyl)-3-(4-(5-((2-(2,6-dioxopiperidin-3-yl)-1,3-dioxoisoindolin-4-yl)amino)pentanoyl)piperazin-1-yl)propyl)-1-(7H-pyrrolo[2,3-d]pyrimidin-4-yl)piperidine-4-carboxamide]
- downstream signaling inhibition [7, 9]: moderate effectiveness
- AKT (T-AKT) degradation [4]: moderate effectiveness
